Here are results for 31 molecules from patent US20070298994A1, “Use of 3-Mercapto-3-Methyl-Hexan-1-Ol for Use as Malodour Standard” (SYMRISE GMBH & CO. KG, priority 2004, published 2007).

Assay [1] in a line: Odour threshold value in air on a dynamic olfactometer. As to conditions: for odour threshold value in air: dynamic olfactometer, mean of 24 measured values (8 trained assessors, three passes), refers to the pure substance. As for the experimental part: The odour threshold values in air were determined for the substance (E)-3-methyl-2-hexenoic acid also occurring in sweat and 3-mercapto-3-methyl-hexan-1-ol recently found in sweat.
The odour threshold value denotes the concentration of an olfactorily perceptible substance in air at which this can be distinguished from the odourless ambient air.
Determination is carried out on a dynamic olfactometer. A sample of 20 μl each of dilute solutions of the components is placed in a container with 7 l air. The samples in the olfactometer are diluted clearly below the odour threshold by defined addition of odourless air. In the olfactometer, the concentrations in the sample air are increased little by little until all the assessors have characterised a perception. A group of 8 trained assessors determines the concentration of the samples to be distinguished in odour from air on three passes each so that the mean value of 24 measured values leads to the respective concentrations. The (E)-3-methyl-2-hexenoic acid is measured at 1% and the 3-mercapto-3-methyl-hexan-1-ol at 0.1% in odourless dipropylene glycol. The different dilutions were taken into account for calculating the threshold values. The threshold values refer to the pure substances. The threshold value of the (E)-3-methyl-2-hexenoic acid was determined at 15.1 ng/l air. The threshold value for the 3-mercapto-3-methyl-hexan-1-ol was determined at 0.015 ng/l air. All assessors evaluated the threshold value of 3-mercapto-3-methyl-hexan-1-ol lower than (E)-3-methyl-2-hexenoic acid in all passes.

Assay [2] is described as follows: Raw material test against sweat odour (masking of malodour standard, assessor panel). The conditions noted are these: for Increase In intensity / Odour reduction value: Table 1, 15 h at approx. 20° C., scale 1 to 9, malodour standard mixture = 6, mean of at least 8 assessors.
Assay [3] in a line: Application test in the formulations (smelling strips, assessor panel). More on the design: Malodour reduction value: scale not given here. The conditions noted are these: smelling strip, 1 μl 3-mercapto-3-methyl-hexan-1-ol solution (0.001% in DPG), at least 12 experts. The protocol: Mixtures A-C and the fragrances of Table 4 were incorporated in the formulations of Examples 3-12 as perfume oil. […] The coding smelling strips were evaluated sensorily by a group of assessors of at least 12 experts.

[4] abbreviates: 1 μl fragrance + 5 μl 3-mercapto-3-methyl-hexan-1-ol (0.1% in DPG) in 7 l air.
Setting [5] is: Table 4, tests with the mixtures (Example 2), according to the raw material test method.
Where [6] appears, read: Table 2 (raw materials without adequate malodour-reducing action), 1 μl fragrance + 5 μl 3-mercapto-3-methyl-hexan-1-ol (0.1% in DPG) in 7 l air, 15 h, scale 1 to 9, standard = 6.
Setting [7] is: in EXAMPLE 3: ROLL-ON DEODORANT GEL.
Setting [8] is: in EXAMPLE 6: GEL AIR FRESHENER
[9] abbreviates: in EXAMPLE 7: AEROSOL DEODORANT
The mark [10] stands for this setting: in EXAMPLE 9: HAIR SETTING LOTION.
Where [11] appears, read: Table 3 (adequate malodour-reducing action but significant increase in intensity), 1 μl fragrance + 5 μl 3-mercapto-3-methyl-hexan-1-ol (0.1% in DPG) in 7 l air, 15 h, scale 1 to 9, standard = 6.
Where [12] appears, read: prior-art fragrances examined by the applicant.

Structures are written as SMILES.

As to `CCCC(C)(S)CCO` (centres unmarked) [3-mercapto-3-methyl-hexan-1-ol], in assay [1], the “odour threshold value in air” value is 0.015 ng/l air. Also, the “factor by which threshold value is lower than that of (E)-3-methyl-2-hexenoic acid” value in assay [1] (odour threshold values in air) worked out at 1000.

For `CCC/C(C)=C/C(=O)O` [(E)-3-methyl-2-hexenoic acid, reference compound], the “odour threshold value in air” value in assay [1] was determined as 15.1 ng/l air.

As to `C/C=C/C(=O)OC(C)CC(C)C` (centres unmarked) [CROTONIC ACID-4-METHYL-2-[…]], in assay [2] (setting [4]), the “Increase In intensity” value is given as −0.5 and the Odour reduction value came to 3.5.

`COC1(OC)CCCCCCCCCCC1` [CYCLODODECANONE DIMETHYL KETAL]: in assay [2] (setting [4]), the “Increase In intensity” value stood at 1.5 and the Odour reduction value is listed as 4.0.

For the molecule `COC1CCCCCCCCCCC1` [CYCLODODECYL METHYL ETHER], in assay [2] (setting [4]), the “Increase In intensity” value is listed as 0.7 and the Odour reduction value was 3.1.

For the molecule `CCCCCCCCCC=O` [DECANAL], in assay [2] (setting [4]), the “Increase In intensity” value worked out at 0.2 and the Odour reduction value is 3.0.

Take `CCOC(=O)c1ccccc1C(=O)OCC` [DEP, diethyl phthalate, reference compound]: in assay [2] (setting [5]), the Increase in intensity was −0.1 and the Malodour reduction value is 0.0. Moreover, in assay [2] (solvents), the “effect on the intensity of the bad odour” value is given as “no effect” and the “effect on the total intensity” value is “no effect”.

On to `CCCCCCCCCCCC=O` [DODECANAL, reference compound], for which, in assay [2] (setting [6]), the Increase in intensity was 2.0 and the Malodour reduction value was determined as 2.0.

In the case of `CCOC(C)=O` [ETHYL ACETATE], the Increase in intensity in assay [2] (setting [6]) is listed as −0.9; in assay [2] (setting [5]), −1.1; in assay [3] (setting [7]) it was −0.1; in assay [3] (in EXAMPLE 4: W/O CREAM), 0.0; in assay [3] (in EXAMPLE 5: O/W LOTION), 0.5; in assay [3] (setting [8]), 0.5. The Increase in intensity was −0.5 in assay [3] (setting [9]); 0.5 in assay [3] (in EXAMPLE 8: FOOT CREAM); −0.5 in assay [3] (setting [10]); 0.8 in assay [3] (in EXAMPLE 10: CARE MASK); −0.5 in assay [3] (in EXAMPLE 11: SKIN OIL); −0.6 in assay [3] (in EXAMPLE 12: OINTMENT). For the same molecule, the Malodour reduction value in assay [2] (setting [6]) was found to be 1.1; in assay [2] (setting [5]), 1.1; in assay [3] (setting [7]), 0.5; in assay [3] (in EXAMPLE 4: W/O CREAM) it was 1.0; in assay [3] (in EXAMPLE 5: O/W LOTION), 0.5; in assay [3] (setting [8]) it was 0.8. Further, the Malodour reduction value worked out at 1.1 in assay [3] (setting [9]); 0.8 in assay [3] (in EXAMPLE 8: FOOT CREAM); 1.2 in assay [3] (setting [10]); 1.2 in assay [3] (in EXAMPLE 10: CARE MASK); 0.3 in assay [3] (in EXAMPLE 11: SKIN OIL); 0.0 in assay [3] (in EXAMPLE 12: OINTMENT).

As to `C=CCc1ccc(O)c(OC)c1` [EUGENOL], in assay [2] (setting [4]), the “Increase In intensity” value is 0.7 and the Odour reduction value was 6.0.

As to `CC(=O)/C(C)=C/C1C(C)=CCCC1(C)C` (centres unmarked) [GAMMA-METHYLICONE, reference compound], in assay [2] (setting [11]), the Increase in intensity was 2.1 and the Malodour-reduction value worked out at 4.0.

For the molecule `CC(=O)OC/C=C(\C)CCC=C(C)C` [GERANYL ACETATE, reference compound], in assay [2] (setting [11]), the Increase in intensity amounted to 2.2 and the Malodour-reduction value is reported as 3.0.

Turning to `CC(C)=CCCC(C)=CC#N` [GERANYL NITRILE, 3,7-dimethyl-2,6-octadiene-1-nitrile, reference compound], in assay [2] (setting [11]), the Increase in intensity was 3.0 and the Malodour-reduction value is 5.0. In assay [2] (setting [12]), the “intrinsic odour / perfumistic impression (in words)” value is “strong intrinsic odour” and the “reduction in the bad odour based on 3-mercapto-3-methyl-hexan-1-ol (in words)” value is given as “does show a reduction in the bad odour”.

Take `CC(C)COC(=O)C=Cc1ccccc1` [ISOBUTYL CINNAMATE]: in assay [2] (setting [4]), the “Increase In intensity” value amounted to 0.8 and the Odour reduction value is 3.1.

`C=CC(C)(O)CCC=C(C)C` (centres unmarked) [LINALOOL]: in assay [2] (setting [4]), the “Increase In intensity” value came out at 1.0 and the Odour reduction value amounted to 5.0.

For the molecule `CC(=O)OC1CC(C)CCC1C(C)C` (centres unmarked) [MENTHYL ACETATE, reference compound], in assay [2] (setting [11]), the Increase in intensity is given as 2.9 and the Malodour-reduction value is reported as 4.4.

With `CCCCCCCCC=O` [NONANAL, reference compound], in assay [2] (setting [11]), the Increase in intensity worked out at 2.1 and the Malodour-reduction value was 3.0.

In the case of `CCCCCCCC=O` [OCTANAL, reference compound], in assay [2] (setting [6]), the Increase in intensity stood at 0.9 and the Malodour reduction value is listed as 2.4.

As to `OCCCc1ccccc1` [PHENYL PROPYL ALCOHOL, reference compound], in assay [2] (setting [6]), the Increase in intensity is listed as 1.0 and the Malodour reduction value worked out at 0.0.

For `CC(C)CCOC(=O)c1ccccc1O` [SALICYLIC ACID 3-METHYLBUTYL ESTER], in assay [2] (setting [4]), the “Increase In intensity” value was found to be 1.0 and the Odour reduction value worked out at 3.3.

Consider `CCCCCCOC(=O)c1ccccc1O` [SALICYLIC ACID HEXYL ESTER], for which, in assay [2] (setting [4]), the “Increase In intensity” value was 1.7 and the Odour reduction value was 3.7.

As to `CC(C)=CCOC(=O)c1ccccc1O` [SALICYLIC ACID PRENYL ESTER], in assay [2] (setting [4]), the “Increase In intensity” value is listed as 0.2 and the Odour reduction value turned out to be 3.6.

Take `CCCCCC1COCCC1OC(C)=O` (centres unmarked) [TETRAHYDRO-3-PENTYL-PYRAN-4-OL ACETATE]: in assay [2] (setting [4]), the “Increase In intensity” value worked out at 1.5 and the Odour reduction value is 4.5. In addition, in assay [2] (setting [6]), the Increase in intensity worked out at 1.0 and the Malodour reduction value was determined as 2.0.

Turning to `CCC(C)(O)CCCC(C)C` (centres unmarked) [TETRAHYDROLINALOOL, reference compound], in assay [2] (setting [11]), the Increase in intensity was 2.3 and the Malodour-reduction value came to 3.0.

As to `CCC(C)CCCC(C)(C)O` (centres unmarked) [TETRAHYDROMYRCENOL, reference compound], in assay [2] (setting [11]), the Increase in intensity turned out to be 2.2 and the Malodour-reduction value stood at 4.0.

Turning to `C/C=C(\C)C(=O)OC/C=C(\C)CCC=C(C)C` [TIGLIC ACID GERANYL ESTER], in assay [2] (setting [4]), the “Increase In intensity” value was 0.8 and the Odour reduction value was 4.5.

For the molecule `CC(C)[C@H]1CC[C@H](O)CC1` [TRANS-4-ISOPROPYL CYCLOHEXANOL], in assay [2] (setting [4]), the “Increase In intensity” value worked out at 1.0 and the Odour reduction value was 4.1.

With `CCCCCCCCCCCC#N` [UNDECYL CYANIDE], in assay [2] (setting [4]), the “Increase In intensity” value was 1.6 and the Odour reduction value worked out at 3.3.

Turning to `COc1cc(C=O)ccc1O` [VANILLIN, reference compound], in assay [2] (setting [6]), the Increase in intensity was determined as 1.0 and the Malodour reduction value is listed as 0.0.

In assay [2], `CC1CC(C)(c2ccccc2)OC(C)O1` (centres unmarked) [reference compound] came in with an Increase in intensity of −0.7 and a Malodour reduction value of 1.1.

On to `CCCCCC(C=O)=Cc1ccccc1` [reference compound], for which, in assay [2] (setting [6]), the Increase in intensity was 1.0 and the Malodour reduction value was found to be 0.0.
